“And” between values parts separate entries of the source, which are not always exact repeats. Identical values can stand only once. “Also recorded” adds a separate entry of the source.
Experiments:
rat nSMase2 = biological target: T1, rat nSMase2 (Rattus norvegicus, UniProt O35049); assay: Fluorescence assay with rat brain homogenate membrane fraction; format: biochemical; conditions: rat brain homogenates
T1 construct: A membrane protein-enriched fraction of rat brain homogenate was used as the source for nSMase2; from tissue; host or cells: rat brain homogenate, membrane protein-enriched fraction
T1 sequence (O35049 1-655): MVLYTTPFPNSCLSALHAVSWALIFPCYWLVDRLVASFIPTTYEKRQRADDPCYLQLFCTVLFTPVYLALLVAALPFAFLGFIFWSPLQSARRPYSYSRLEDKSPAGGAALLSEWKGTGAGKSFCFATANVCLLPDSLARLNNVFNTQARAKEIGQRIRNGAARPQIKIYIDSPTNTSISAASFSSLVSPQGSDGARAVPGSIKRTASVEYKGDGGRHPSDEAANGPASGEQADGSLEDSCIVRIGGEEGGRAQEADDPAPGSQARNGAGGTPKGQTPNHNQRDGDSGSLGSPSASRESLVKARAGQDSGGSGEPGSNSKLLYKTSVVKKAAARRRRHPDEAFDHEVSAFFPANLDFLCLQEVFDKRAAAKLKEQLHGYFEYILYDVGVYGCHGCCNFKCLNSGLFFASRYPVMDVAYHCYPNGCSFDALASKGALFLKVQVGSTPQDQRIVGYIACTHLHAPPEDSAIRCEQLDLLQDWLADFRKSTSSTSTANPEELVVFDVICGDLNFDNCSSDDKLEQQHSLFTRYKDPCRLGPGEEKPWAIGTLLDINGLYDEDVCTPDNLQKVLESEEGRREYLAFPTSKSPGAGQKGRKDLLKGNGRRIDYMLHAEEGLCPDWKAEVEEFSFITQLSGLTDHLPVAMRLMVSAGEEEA

Solubility = format: physicochemical; conditions: cambinol compared to GW4869
[1] = test system: rat primary hippocampal neurons; assay: Hippocampal neuronal survival (Hoechst 33342); format: cell-based; conditions: for effect on TNF-α or IL-1β-induced neuron cell death (words): Hoechst 33342 staining
Method: All animal procedures were approved by the Johns Hopkins University Animal Care and Use Committee. Primary hippocampal neurons were prepared from day 18 decapitated embryos of Sprague-Dawley rats following previously described methods. Cells were seeded on polyethyleneimine (PEI)-coated slides in 12-well plates and cultured between 14–21 days. […] After 18 h, cells were stained with 50 μg/ml Hoeschst 33342 for 20 min and then fixed with 4% paraformaldehyde for 30 min. The number of living and apoptotic cells was determined by fluorescence microscopy. A minimum of 500 cells were counted per treatment condition. Results were normalized to control untreated cells and were representative of at least two independent experiments conducted in triplicate. Statistical evaluation of the data was done by Student’s t-test.

[2] = test system: BCL6-expressing Burkitt lymphoma cell lines; design: method as in PMID 16618762; conditions: cited from earlier work
human nSMase2 = biological target: T2, human nSMase2 (Homo sapiens, UniProt Q9NY59); assay: 14C-SM confirmatory direct activity assay; format: biochemical; design: Full length human nSMase2 cDNA with a C-terminal Flag tag; host or cells: HEK293, stably transfected; crude cell lysate used as enzyme
T2 sequence (Q9NY59 1-655): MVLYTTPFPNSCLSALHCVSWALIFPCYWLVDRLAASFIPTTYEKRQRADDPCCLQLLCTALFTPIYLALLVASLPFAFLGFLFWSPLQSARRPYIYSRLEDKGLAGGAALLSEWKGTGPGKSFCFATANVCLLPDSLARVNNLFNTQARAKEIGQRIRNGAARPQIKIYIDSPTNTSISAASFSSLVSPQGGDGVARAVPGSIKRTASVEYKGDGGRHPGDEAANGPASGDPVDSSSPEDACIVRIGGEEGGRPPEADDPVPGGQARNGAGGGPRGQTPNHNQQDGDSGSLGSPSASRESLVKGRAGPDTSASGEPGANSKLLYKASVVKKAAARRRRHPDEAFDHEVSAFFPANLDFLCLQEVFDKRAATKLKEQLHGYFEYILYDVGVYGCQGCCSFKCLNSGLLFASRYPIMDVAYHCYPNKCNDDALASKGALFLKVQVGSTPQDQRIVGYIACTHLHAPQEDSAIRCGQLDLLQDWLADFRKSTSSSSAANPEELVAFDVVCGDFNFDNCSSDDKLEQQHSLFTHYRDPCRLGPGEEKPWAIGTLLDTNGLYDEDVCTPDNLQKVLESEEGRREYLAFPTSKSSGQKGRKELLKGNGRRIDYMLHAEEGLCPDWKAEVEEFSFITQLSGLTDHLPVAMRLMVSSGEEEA
Method: This assay was dependent on the direct hydrolysis of ^14C-labeled SM (^14C N-methyl groups in the phosphorylcholine) by human nSMase2. Optimization of assay conditions was accomplished according to the methods of Barbone et al.. Briefly, bovine [N-methyl-^14C]-sphingomyelin (specific activity […], Perkin Elmer) and phosphatidylinositol (Avanti Polar Lipids) were evaporated to dryness under a stream of nitrogen and resuspended at an equimolar concentration of 0.1 mM in water with 0.5% Triton X-100 (Sigma). The solution was vortexed for 30 min and then sonicated for 30 min. Assay conditions were as follows: 50 μl total volume per reaction, consisting of 20 μM SM, reaction buffer (100 mM Tris-HCl pH 7.5, 80 mM MgCl2, 0.1% Triton X-100); 10 μl cell lysate containing recombinant human nSMase2 (0.5–1 μg protein/assay) and 5 μl of compound in reaction buffer containing 10% DMSO. After 1 h incubation at 37°C the reaction was terminated by the addition of 30 μl of water and 175 μl of chloroform/methanol (2:1, v:v), followed by vigorous vortexing. Tubes were centrifuged for 5 min at 10,000 xg at room temperature to separate the organic bottom phase containing labeled SM and the aqueous upper phase containing ^14C-labeled-phosphorylcholine. An aliquot (50 μl) of the upper phase was transferred to a vial with 10 ml of scintillant and counted for 2 min on a Beckman LS-6000IC scintillation counter. Enzyme activity was directly proportional to the disintegrations per min (dpm) resulting from the generation of ^14C-phosphorylcholine.

O=c1[nH]c(=S)[nH]c(-c2ccccc2)c1Cc1c(O)ccc2ccccc12 [Cambinol, cambinol]
IC50 (rat nSMase2): 6 µM | aqueous solubility (Solubility): significantly higher; also recorded: improved | neuron survival, Mean (normalized to control untreated cells) ([1]; 100 ng/ml IL1β 18 h, 0.1 µM compound): 77.25 | neuron survival, Mean (normalized to control untreated cells) ([1]; 100 ng/ml IL1β 18 h, 0.3 µM compound): 74.03 | neuron survival, Mean (normalized to control untreated cells) ([1]; 100 ng/ml IL1β 18 h, 1 µM compound): 84.51 | neuron survival, Mean (normalized to control untreated cells) ([1]; 100 ng/ml IL1β 18 h, 3 µM compound): 93.01 | neuron survival, Mean (normalized to control untreated cells) ([1]; 100 ng/ml IL1β 18 h, 10 µM compound): 93.58 | neuron survival, Mean (normalized to control untreated cells) ([1]; 100 ng/ml IL1β 18 h, 25 µM compound): 97.12 | neuron survival, Mean (normalized to control untreated cells) ([1]; 100 ng/ml TNFα 18 h, 0.1 µM compound): 78.25 | neuron survival, Mean (normalized to control untreated cells) ([1]; 100 ng/ml TNFα 18 h, 0.3 µM compound): 82.52 | neuron survival, Mean (normalized to control untreated cells) ([1]; 100 ng/ml TNFα 18 h, 1 µM compound): 86.26 | neuron survival, Mean (normalized to control untreated cells) ([1]; 100 ng/ml TNFα 18 h, 3 µM compound): 90.17 | neuron survival, Mean (normalized to control untreated cells) ([1]; 100 ng/ml TNFα 18 h, 10 µM compound): 91.48 | neuron survival, Mean (normalized to control untreated cells) ([1]; 100 ng/ml TNFα 18 h, 25 µM compound): 92.36 | effect on TNF-α or IL-1β-induced neuron cell death (words) [1]: decreased | effect on TNF-α or IL-1β-induced neuron cell death (words) ([1]; listed as cambinol): prevent; also recorded: inhibited; also recorded: protected | neuron survival, Mean (normalized to control untreated cells) ([1]; No IL1β, 25 µM compound): 91.21 | apoptosis [2]: induced apoptosis | %Inhibition (human nSMase2; Log [compound] -3.0): 92.0% and 91.0% | %Inhibition (human nSMase2; Log [compound] -3.47756): 99.0% and 86.0% | %Inhibition (human nSMase2; Log [compound] -4.0): 83.0% and 80.0% | %Inhibition (human nSMase2; Log [compound] -5.0): 56.0% and 57.0% | %Inhibition (human nSMase2; Log [compound] -5.47756): 46.0% and 47.0% | %Inhibition (human nSMase2; Log [compound] -6.0): 13.0% and 15.0% | %Inhibition (human nSMase2; Log [compound] -7.0): 0.0% and 10.0% | %Inhibition (human nSMase2; Log [compound] -7.47756): 8.0% and 10.0% | %Inhibition (human nSMase2; Log [compound] -8.0): 8.0% and 11.0% | %Inhibition (human nSMase2; Log [compound] -8.47756): 14.0% and 7.0% | %Inhibition (human nSMase2; Log [compound] -9.0): 6.0% and 4.0% | %Inhibition (human nSMase2; Log [compound] -9.47756): 12.0% and 18.0* % | inhibition at 10 µM (human nSMase2; at 10 μM): > 80%
